Measurements published in paper PMC5439695 (PLoS ONE, 2017).
Read-outs that look alike come from different tables or passages of the source.

How the values were obtained:
[1] = tested on: HEK293 and HepG2 cell lines
[2] = tested on: NRF2; conditions: cited from earlier work; for Nrf2 TF activity (in words): Tox21 assay

CC/C(=C(/CC)c1ccc(O)cc1)c1ccc(O)cc1 [Diethylstilbestrol, reference compound]
cytotoxicity kinetics activity profile in the four real-time cytotoxicity assays ([1]; human): active only in HEK293[glo] | Nrf2 TF activity (in words) [2]: increased Nrf2 TF activity

CC12CC1(C)C(=O)N(c1cc(Cl)cc(Cl)c1)C2=O (stereo not drawn) [procymidone, reference compound]
cytotoxicity kinetics activity profile in the four real-time cytotoxicity assays [1]: no activity in all four real-time cytotoxicity assays | Nrf2 TF activity (in words) [2]: Weak Nrf2 activity

O=C(OC1CCCCC1)c1ccccc1C(=O)OC1CCCCC1 [Dicyclohexyl phthalate]
increase NRF2 TF activity, POD potency [2]: 4.18 log10(M)*-1

CC(C)C(=O)Nc1ccc([N+](=O)[O-])c(C(F)(F)F)c1 [Flutamide, reference compound]
cytotoxicity kinetics activity profile in the four real-time cytotoxicity assays ([1]; human): active only in HEK293[glo] | Nrf2 TF activity (in words) [2]: increased Nrf2 TF activity

CC(C)(c1ccc(O)cc1)c1ccc(O)cc1 [Bisphenol A]
cytotoxicity kinetics activity profile in the four real-time cytotoxicity assays ([1]; human): active only in HEK293[glo] | Nrf2 TF activity (in words) [2]: increased Nrf2 TF activity

O.[Br-].[Br-].c1cc[n+]2c(c1)-c1cccc[n+]1CC2 [Diquat dibromide monohydrate]
increase NRF2 TF activity, POD potency [2]: 5.17 log10(M)*-1

CC(C)(O)C(=O)Nc1ccc([N+](=O)[O-])c(C(F)(F)F)c1 [Hydroxyflutamide, reference compound]
cytotoxicity kinetics activity profile in the four real-time cytotoxicity assays ([1]; human): active only in HEK293[glo] | Nrf2 TF activity (in words) [2]: increased Nrf2 TF activity
